Assay results as given in patent US20090253794A1, “Fibroblast Activator, Collagen Production Promoter, Collagen Contraction Promoter, Hyaluronic Acid Production Promoter, ATP Production Promoter, Melanin Formation Inhibitor, and Agent for External Application to the Skin” (priority 2005, published 2009).

Experiments:
normal human fibroblasts = assay: hyaluronic acid production promoting effect and cell count; format: cell-based; conditions: 72 hr; for number of cells: negative control 5.4 × 10^5; for amount of hyaluronic acid produced: negative control = 100, n=3 average
Experimental: The number of cells of normal human fibroblasts was adjusted to 5.0×10^4 cells/mL in Medium 106S medium containing 2% FBS, and plated on a 24 well plate by 1.0 mL. The cell was cultured under an atmosphere of 95% (V/V) air-5% (V/V) carbon dioxide gas at 37° C. for 24 hr, and then Medium 106S medium (free of FBS) containing various concentrations of conagenin was added. After further culture for 72 hr, the culture supernatant was collected, and the concentration of hyaluronic acid released into the medium was measured by an inhibitory method (hyaluronic acid measurement kit, manufactured by SEIKAGAKU CORPORATION) utilizing a hyaluronic acid-binding protein. The method of operation was as indicated in the attached explanation insert. The results obtained using PBS as a negative control instead of conagenin was taken as 100 and the amount ratio of hyaluronic acid in the medium was calculated.

B16 melanoma cells = assay: melanin formation suppression test, visual whitening and cell mass volume; format: cell-based, mouse; design: key to level of whitening: whitening high→++; whitening moderate→+; somewhat whitened→+−; no whitening→−; conditions: 5 days; for level of whitening: visual evaluation; for change in cell mass volume: visual, cytotoxicity index
Experimental: A melanin formation suppression test was performed as follows using mouse melanoma cells. First, 2×10^4 B16 melanoma cells were plated in a 35 mm diameter dish containing Eagle's minimum nutrition medium (3 ml) supplemented with 10% (v/v) fetal bovine serum, and cultured in a carbon dioxide incubator adjusted to 5% (v/v) carbon dioxide gas at 37° C. for about 24 hr. Then, pure water or a sample dissolved in pure water was added thereto to a final concentration of 0.1 mM, 1.0 mM or 10 mM. As a positive control, kojic acid (manufactured by Sigma Ltd.) was added to the same concentration. The cells were cultured for 5 more days under the same conditions, treated with trypsin, and centrifuged to collect the cells in a 1.5 ml Eppendorf. The level of whitening of the cells was visually evaluated, and indicated: whitening high→++; whitening moderate→+; somewhat whitened→+−; no whitening→−. Simultaneously, changes in the cell mass volume was visually evaluated and used as a cytotoxicity index.

[1] = test system: normal skin fibroblasts derived from human; assay: fibroblast activating action evaluation test by the MTT reduction method; format: cell-based; conditions: 48 hr culture, control = 100
Experimental: The present inventors performed a fibroblast activating action evaluation test by the MTT reduction method and using normal skin fibroblasts derived from human (see TIM Mosmann; Journal of Immunological Methods p 55-63, 1983).
Using DMEM (Gibco) containing 5% FBS (fetal bovine serum; purchased from NICHIREI CORPORATION), normal skin fibroblasts derived from human (manufactured by KURABO INDUSTRIES LTD.) were plated on a 96 well plate at a density of 2×10^4 cells/well, and cultured at 37° C., 5% CO2 for 24 hr. After removing the medium, the cells were washed with PBS(−) (NISSUI PHARMACEUTICAL CO., LTD.), the medium was changed to DMEM containing 1% FBS supplemented with each concentration of conagenin, and the cells were cultured at 37° C., 5% CO2. The blank was […] containing 1% FBS, which was free of test specimen. After culture for 48 hr, the absorbance at 550 nm was measured by MTT reduction method, based on which the MTT reduction amount was determined. The cell activation rate was shown in a percentage relative to the absorbance of additive-free cultured cell (control) as 100.

[2] = test system: mouse B16 melanoma strain; assay: melanin formation amount after L-DOPA incubation (absorbance 495 nm), cells of Example 7; format: cell-based; conditions: FIG. 1; cells of Example 7 (0.1, 1.0, 10 mM); absorbance at 495 nm
Experimental: To the cells recovered in Example 7 was added 100 μl of cell suspension (PBS buffer containing Triton X-100 at 0.1% (v/v)). After thorough suspending, the suspension was stood at 4° C. for 1 hr. Thereto was added 100 μl of 10 mM L-DOPA (manufactured by Nacalai Tesque), and the mixture was incubated at 37° C. for 1 hr. Thereafter, the absorbance at 495 nm was measured by a plate reader (multiscanplus MKII, manufactured by Japan Flow Laboratory), and the melanin formation amount was measured.

[3] = test system: normal human skin fibroblasts; assay: type I collagen production promoting effect (PIP in culture supernatant) and cell count; format: cell-based; conditions: for produced amount of collagen: 24 hr, relative value, negative control = 100, n=3 average; for number of cells: cells per well, counted visually after trypsin, negative control 4.9 × 10^5
Experimental: Normal human skin fibroblasts (manufactured by KURABO INDUSTRIES LTD.) were added to a 24 well plate at 5×10^4 cells per well. Using Medium 106S medium (manufactured by KURABO INDUSTRIES LTD.) containing 2% FBS, the cells were cultured under an atmosphere of 95% (V/V) air-5% (V/V) carbon dioxide gas at 37° C. for 24 hr. The medium was changed to Medium 106S medium (free of FBS) containing each sample, and the cells were cultured under the same conditions for 24 hr. After the completion of culture, the culture supernatant was taken to evaluate the type I collagen biosynthesizability and, to count the cells, the cells were harvested by a trypsin treatment. The samples used were two kinds of conagenin contents of 0.1 μM, 1 μm, 10 μM, 100 μM, 1 mM (final concentration), and magnesium L-ascorbyl phosphate (manufactured by Wako Pure Chemical Industries, Ltd., final concentration 100 μM) as a positive control (one added with PBS instead of the sample was used as a negative control).

C[C@@H]([C@@H](C)O)[C@@H](O)C(=O)N[C@@](C)(CO)C(=O)O [conagenin, (2S)—N-[(2R,3S,4R)2,4-dihydroxy-3-methyl-pentanoyl]-2-methylserine]
number of cells (normal human fibroblasts; 1 μM): 5.3 × 10^5 | amount of hyaluronic acid produced (normal human fibroblasts; 1 μM): 108 | number of cells (normal human fibroblasts; 10 μM): 5.5 × 10^5 | amount of hyaluronic acid produced (normal human fibroblasts; 10 μM): 120 | number of cells (normal human fibroblasts; 100 μM): 5.3 × 10^5 | amount of hyaluronic acid produced (normal human fibroblasts; 100 μM): 132 | number of cells (normal human fibroblasts; 1 mM): 5.1 × 10^5 | amount of hyaluronic acid produced (normal human fibroblasts; 1 mM): 147 | number of cells (normal human fibroblasts; 5 mM): 4.0 × 10^5 | amount of hyaluronic acid produced (normal human fibroblasts; 5 mM): 199 | level of whitening (B16 melanoma cells; 0.1 mM): + | change in cell mass volume (B16 melanoma cells; 0.1 mM): none | level of whitening (B16 melanoma cells; 1 mM): ++ | change in cell mass volume (B16 melanoma cells; 1 mM): none | level of whitening (B16 melanoma cells; 10 mM): ++ | change in cell mass volume (B16 melanoma cells; 10 mM): none | cell activation rate ([1]; 0.01 μM): 105% | cell activation rate ([1]; 0.05 μM): 120% | cell activation rate ([1]; 0.1 μM): 125% | cell activation rate ([1]; 1 μM): 111% | cell activation rate ([1]; 10 μM): 113% | cell activation rate ([1]; 40 μM): 124% | cell activation rate ([1]; 80 μM): 113% | cell activation rate ([1]; 160 μM): 113% | cell activation rate ([1]; 310 μM): 113% | melanin formation amount [2]: suppresses melanin formation at a low concentration | produced amount of collagen ([3]; 0.1 μM): 196 | number of cells ([3]; 0.1 μM): 5.1 × 10^5 | produced amount of collagen ([3]; 1 μM): 197 | number of cells ([3]; 1 μM): 5.1 × 10^5 | produced amount of collagen ([3]; 10 μM): 204 | number of cells ([3]; 10 μM): 5.2 × 10^5 | produced amount of collagen ([3]; 100 μM): 208 | number of cells ([3]; 100 μM): 4.8 × 10^5 | produced amount of collagen ([3]; 1 mM): 202 | number of cells ([3]; 1 mM): 4.7 × 10^5
